Experimental data published in PMC10285300, “Abscisic acid mimic-fluorine derivative 4 alleviates water deficit stress by regulating ABA-responsive genes, proline accumulation, CO2 assimilation, water use efficiency and better nutrient uptake in tomato plants” (Frontiers in Plant Science, 2023).

Legend:
Sl08g076960 = target: T1, Sl08g076960 (Solanum lycopersicum, UniProt A0A3Q7HTY9); assay: PP2C inhibition assay (pNPP, […] nm), receptor-dependent inhibition of HAB1; assay type: biochemical; conditions: agonist; deltaN-HAB1 1 uM, receptor 2 uM, 25 mM pNPP, 10 mM MnCl2, Tris pH 8.0
T1 construct: gene LOC101268417; with Protein phosphatase 2C 16 (Arabidopsis thaliana)
T1 sequence (A0A3Q7HTY9 1-231): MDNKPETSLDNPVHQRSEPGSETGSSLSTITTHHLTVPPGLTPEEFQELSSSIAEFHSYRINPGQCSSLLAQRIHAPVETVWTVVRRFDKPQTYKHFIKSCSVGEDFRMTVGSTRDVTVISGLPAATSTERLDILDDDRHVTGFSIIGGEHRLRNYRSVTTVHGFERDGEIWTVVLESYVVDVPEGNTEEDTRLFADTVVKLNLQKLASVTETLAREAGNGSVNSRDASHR
T1 sequence (Q9CAJ0 172-511 partner limits assumed): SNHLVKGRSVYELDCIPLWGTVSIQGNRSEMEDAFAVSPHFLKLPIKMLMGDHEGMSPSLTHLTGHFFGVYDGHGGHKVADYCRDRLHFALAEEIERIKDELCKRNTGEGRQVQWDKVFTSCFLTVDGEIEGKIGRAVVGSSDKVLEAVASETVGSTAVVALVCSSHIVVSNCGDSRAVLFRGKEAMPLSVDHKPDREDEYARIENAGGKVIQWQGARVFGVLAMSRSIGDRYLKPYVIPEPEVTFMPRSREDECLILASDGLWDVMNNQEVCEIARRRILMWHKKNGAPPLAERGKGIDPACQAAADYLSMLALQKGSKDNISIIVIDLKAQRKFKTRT

ΔN-HAB1 = target: T2, ΔN-HAB1 (Arabidopsis thaliana, UniProt Q9CAJ0); assay: phosphatase activity, […] nm, […] min; assay type: biochemical; conditions: 25 mM pNPP, 10 mM MnCl2, Tris pH 8.0
T2 sequence (Q9CAJ0 172-511 limits assumed): T1 sequence (Q9CAJ0 172-511 partner limits assumed)

| Structure (SMILES) | PP2C activity at 1 or 10 μM (Sl08g076960) | phosphatase activity, 405 nm, 20 min (ΔN-HAB1) |
| --- | --- | --- |
| CCCN1C(=O)CCc2cc(NS(=O)(=O)Cc3c(F)c(F)c(C)c(F)c3F)ccc21 [AMF4, N-(2-oxo-1-propyl-1,2,3,4-tetrahydroquinolin-6-yl)-1-(2,3,5,6-tetrafluoro-4-methylphenyl) methanesulfonamide] | both PYL1-like tomato receptors were activated by AMF4, resulting in the inhibition of the PP2C |  |
| O=[N+]([O-])c1ccc(OP(=O)(O)O)cc1 [p-nitrophenyl phosphate] |  | Phosphatase activity was measured using p-nitrophenyl phosphate (pNPP) as a substrate |
